Read-outs that look alike come from different tables or passages of the source.
How the values were obtained:
Lp-PLA2 = biological target: T1, Lp-PLA2 (Homo sapiens, UniProt Q13093); assay: Inhibitory activity against Lp-PLA2 in human plasma (Thio-PAF assay); format: biochemical; conditions: 2-thio-PAF substrate, 30 min pre-incubation
T1 construct: from tissue; host or cells: pooled (mixed) human plasma
T1 sequence (Q13093 22-441): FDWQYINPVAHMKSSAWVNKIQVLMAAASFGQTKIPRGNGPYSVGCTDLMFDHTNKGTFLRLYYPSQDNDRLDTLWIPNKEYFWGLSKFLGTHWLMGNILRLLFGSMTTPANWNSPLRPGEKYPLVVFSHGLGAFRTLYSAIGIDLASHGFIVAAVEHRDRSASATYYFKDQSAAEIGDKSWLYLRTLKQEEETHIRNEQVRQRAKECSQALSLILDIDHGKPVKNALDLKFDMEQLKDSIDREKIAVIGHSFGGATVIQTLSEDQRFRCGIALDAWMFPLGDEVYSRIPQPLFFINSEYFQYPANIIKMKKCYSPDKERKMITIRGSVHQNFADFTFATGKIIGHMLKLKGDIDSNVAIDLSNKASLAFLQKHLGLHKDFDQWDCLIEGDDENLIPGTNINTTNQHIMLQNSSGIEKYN
Text: The literature reports that 2-Thio-PAF, commercially available from Cayman Chemical, is a substrate for PAF hydrolase (PAF-AH). After its cleavage by PAF-AH, the free thiol released at the sn-2 position can react with 7-diethylamino-3-(4'-maleimidophenyl)-4-methylcoumarin (CPM), resulting in increased fluorescence. Thus, Lp-PLA2 inhibitors can prevent this cleavage, and no increase in fluorescence is observed. In this experiment, the human plasma assay employed the same thioester analog of PAF as described in the recombinant human Lp-PLA2 assay described above.
• (1) The Thio-PAF assay was performed as a quenched 75 µL assay. A compound source plate was prepared by preparing 1:4 (v/v) serial diluents of the compounds in pure DMSO in a 96-well microplate. • (2) 1 µL of each test compound from the compound source plate was transferred into a 96-well microplate containing 40 µL of pre-thawed mixed human plasma by a Rainin multichannel pipette, and the plasma was thawed at room temperature and centrifuged at 2000 rpm for 10 min. The plate was shaken on a microplate shaker for 2 min for uniform mixing. • (3) After 30 min of pre-incubation at room temperature, 10 µL of a substrate solution was added sequentially to the 96-well microplate described above by a Rainin multichannel pipette. The substrate solution contained 2.5 mM 2-thio-PAF (from an ethanol mother liquor), 32 µM CPM (from a DMSO mother liquor), and 3.2 mM N-ethylmaleimide (freshly prepared in DMSO for each experiment) in assay buffer (pH 7.4) consisting of 50 mM HEPES, 150 mM NaCl, and 1 mM CHAPS. After the addition was completed, the plate was immediately shaken for 2 min, and the reaction time for the substrate was 4 min in total. After the reaction was completed, the reaction was quenched with 25 µL of an aqueous solution of 5% trifluoroacetic acid. The plate was centrifuged at 1000 rpm for 1 min. • (4) The FLINT signal (FLINT380/480) was read using a microplate reader. • (5) IC50 data, curve fitting, and QC analyses were performed using GraphPad Prism 8.0 and Excel.

[1] = Liver microsome stability experiment (cynomolgus monkey); format: in vitro ADME; conditions: pH 7.4, Cynomolgus monkey liver microsomes, 0.5 mg/mL; for CLint scaled at 1 µM: cynomolgus monkey, liver microsomes
Procedure: This experiment aimed to evaluate the phase I metabolic stability of the compounds of the present disclosure in liver microsomes of SD rats, beagle dogs, cynomolgus monkeys, and humans.
• (1) Buffer preparation: 73.21 g of dipotassium hydrogen phosphate trihydrate and 10.78 g of potassium dihydrogen phosphate were dissolved in 4000 mL of ultrapure water. The pH of the solution was adjusted to within 7.40 ± 0.10 using 10% phosphoric acid or 1 M potassium hydroxide, resulting in a final concentration of 100 mM. • (2) Solution preparation and dilution: Stock solutions of the test compounds at a concentration of 10 mM were prepared in dimethyl sulfoxide (DMSO) and stored at 4 °C, and they were diluted into 100 µM working solutions with pure acetonitrile when used. A stock solution of the control compound testosterone at a concentration of 10 mM was prepared in DMSO and stored at -20 °C, and it was diluted into a 400 µM working solution with pure acetonitrile when used. • (3) Termination solution preparation: The termination solution was an acetonitrile solution containing an internal standard (terfenadine). The prepared termination solution was stored in a refrigerator at 2-8 °C. • (4) Liver microsome solution preparation: Liver microsomes from various species (SD rat, beagle dog, cynomolgus monkey, and human) were diluted into 20× working solutions using 100 mM potassium phosphate buffer. The final concentration of the liver microsomes in the reaction system was 0.5 mg/mL. • (5) Reduced nicotinamide adenine dinucleotide phosphate (NADPH) regeneration system preparation: Appropriate amounts of nicotinamide adenine dinucleotide phosphate (NADP), glucose-6-phosphate (G6P), magnesium chloride (MgCl2), and glucose-6-phosphate dehydrogenase (G6PDH) were weighed to prepare stock solutions at concentrations of 65.33 mM, 330 mM, 300 mM, and 250 Units/mL, respectively. The four stock solutions described above were each added to an appropriate amount of buffer, and the mixture was mixed well by gently inverting up and down. The final concentrations of NADP, G6P, MgCl2, and G6PDH in the NADPH regeneration system were 2.65 mM, 10.2 mM, 6.12 mM, and 2.45 Units/mL, respectively. • (6) Incubation process: The incubation was completed in 96-well plates. Several incubation plates were prepared and named T0, T5, T10, T20, T40, T60, and NCF60, respectively. The first 6 plates corresponded to reaction time points of 0 min, 5 min, 10 min, 20 min, 40 min, and 60 min, respectively. The NCF60 plate was incubated for 60 min with potassium phosphate buffer replacing the NADPH regeneration system solution. Samples under all conditions were prepared in triplicate.
2 µL of the test compound or control compound and 100 µL of microsome working solution (containing 1 mg/mL liver microsome protein) were added to each of the T0, T5, T10, T20, T40, T60, and NCF60 plates, and only the microsome working solution was added to the Blank 60 plate. The plates described above were then pre-incubated in a 37 °C water bath for about 10 min.
After the pre-incubation was completed, 98 µL of the NADPH regeneration system working solution was added to each sample well except for the NCF60 plate and the T0 plate to initiate the reaction, and 98 µL of potassium phosphate buffer was added to each well of the NCF60 plate. Therefore, for the sample wells containing the test sample or control substance working solution, the final concentrations of TC and testosterone in the reaction were 1 µM and 4 µM, respectively, the concentration of liver microsomes was 0.5 mg/mL, and the final concentrations of DMSO and acetonitrile in the reaction system were 0.01% (v/v) and 0.99% (v/v), respectively.
After incubation for an appropriate time (e.g., 5 min, 10 min, 20 min, 40 min, and 60 min), 600 µL of a termination solution (an acetonitrile solution containing 100 ng/mL […]) was added to each test compound sample well and control compound sample well to terminate the reaction. […]

Row | IC50 (Lp-PLA2) [nM] | CLint scaled at 1 µM ([1]; read-out: CL(liver)) [L/h/kg] | CLint scaled at 1 µM ([1]; read-out: CLint(liver)) [L/h/kg] | half-life at 1 µM [1] [min] | SMILES
1 | 16.4 | 1.7 | 4.86 | 23.1 | O=c1nc(OCc2cc(F)c(Oc3ccnc(C(F)(F)F)c3)c(F)c2)cc2n1C[C@H]1CCCN21 [Comparative Example 1, reference compound]
2 | 3.3 | < 0.492 | < 0.6 | > 186 | O=c1nc(OCc2cc(F)c(Oc3ccnc(C(F)(F)F)c3)c(F)c2)cc2n1C[C@H]1CCN21 [Example 34-R]
